Measurements from patent US20120202822A1, “COMBINATION” (priority 2009, published 2012).

What was measured:
Type in all cases: cell-based
[1] = test system: 12R5-1; experiment: Cell Growth Inhibition Assay (Cell Titer Glo, 3 days); conditions: Homo sapiens, 72 h, 12R5-1 (Compound A resistant clone), read-out: IC50, Single Agent (mean ± std)
Protocol: (§1) Melanoma A375 PF11 line was derived from A375 (ATCC). 12R5-1, 12R5-3, 12R8-1, 12R8-3, 16R5-2, 16R6-3 and 16R6-4 are single cell clones derived from mixed populations of A375 PF11 cells that were selected to grow in Compound A to concentrations of 1200 and 1600 nM. All lines were cultured in RPMI 1640 medium containing 10% fetal bovine serum (FBS).
(§2) All cells were cultured for a minimum of 72 hours prior to cell plating. Cells were assayed in a 96-well tissue culture plate (NUNC 136102) of RPMI medium containing 10% FBS for all cells at 1,000 cells per well. Approximately 24 hours after plating, cells were exposed to ten, three-fold serial dilutions of compound or the combination of the two agents at a constant molar to molar ratio of 1:10 Compound A to Compound B in RPMI media containing 10% FBS. Cells were incubated in the presence of compounds for 3 days. ATP levels were determined by adding Cell Titer Glo® (Promega) according to the manufacturer's protocol. Briefly, Cell Titer Glo® was added each plate, incubated for 30 minutes then luminescent signal was read on the SpectraMax L plate reader with a 0.5 sec integration time.
(§3) Inhibition of cell growth was estimated after treatment with compound or combination of compounds for three days and comparing the signal to cells treated with vehicle (DMSO). Cell growth was calculated relative to vehicle (DMSO) treated control wells. Concentration of compound that inhibits 50% of control cell growth (IC50) was interpolated when y=50% of the vehicle control using nonlinear regression with the equation, y=(A+(B−A)/(1+(C/x)̂D))), where A is the minimum response (ymin), B is the maximum response (ymax), C is the inflection point of the curve (EC50) and D is the Hill coefficient.
(§4) Combination effects on potency were evaluated using Combination Index (CI) which was calculated with the back-interpolated IC50 values and the mutually non-exclusive equation derived by Chou and Talalay (Chou T C, Talalay P. Quantitative analysis of dose-effect relationships: the combined effects of multiple drugs or enzyme inhibitors. Adv Enzyme Regul 1984; 22:27-55.) A detailed description of the CI is found above. In general, a CI value <0.9, between 0.9 and 1.1, or >1.1 indicates synergy, additivity and antagonism, respectively. In general, the smaller the CI number, the greater is the strength of synergy.
(§5) The combination effects on the response scale were quantified by Excess Over Highest Single Agent (EOHSA) based on the concept of nonlinear blending as described in detail by Peterson and Novick (2007) and Peterson (2010) [Peterson J J, Novick S J. J Recept Signal Transduct Res 2007; 27(2-3):125-46, Peterson J. Frontiers of Bioscience S2, 483-503. 2010] EOHSA values are defined as increases in improvement (here, in ‘percentage points’ (ppts) difference) produced by the combination over the best single agent at its component dose level for the combination. Details on the calculation of EOHSA can be found above. For single agent and combination treatments, cells were exposed to compounds at a fixed-dose-ratio, and dose response curves were fit to the experimental data and analyzed using regression models. At specified total dose levels of IC50 along the dose response curve, the dose combination (corresponding to IC50) was determined for making EOHSA statistical inferences. More specifically, for a combination drug experiment involving drug 1 at dose d1 and drug 2 at dose d2, (i.e., total dose equals d1+d2) is said to have a positive EOHSA if the mean response at the combination is better than the mean response to drug 1 at dose d1 […] drug 2 at dose d2.

[2] = test system: 16R5-2; experiment: as above; conditions: Homo sapiens, 72 h, 16R5-2 (Compound A resistant clone), read-out: IC50, Single Agent (mean ± std)
Protocol: as §1, §2, §3, §4, §5

[3] = test system: 16R6-4; experiment: as above; conditions: Homo sapiens, 72 h, 16R6-4 (Compound A resistant clone), read-out: IC50, Single Agent (mean ± std)
Protocol: as §1, §2, §3, §4, §5

[4] = test system: 12R5-3; experiment: as above; conditions: Homo sapiens, 72 h, 12R5-3 (Compound A resistant clone), read-out: IC50, Single Agent (mean ± std)
Protocol: as §1, §2, §3, §4, §5

[5] = test system: 16R6-3; experiment: as above; conditions: Homo sapiens, 72 h, 16R6-3 (Compound A resistant clone), read-out: IC50, Single Agent (mean ± std)
Protocol: as §1, §2, §3, §4, §5

[6] = test system: A375PF11; experiment: as above; conditions: Homo sapiens, A375P-F11, 72 h, A375PF11 (BRAF_V600E), read-out: IC50, Single Agent (mean ± std)
Protocol: as §1, §2, §3, §4, §5

[7] = test system: 12R8-1; experiment: as above; conditions: Homo sapiens, 72 h, 12R8-1 (Compound A resistant clone), read-out: IC50, Single Agent (mean ± std)
Protocol: as §1, §2, §3, §4, §5

[8] = test system: 12R8-3; experiment: as above; conditions: Homo sapiens, 72 h, 12R8-3 (Compound A resistant clone), read-out: IC50, Single Agent (mean ± std)
Protocol: as §1, §2, §3, §4, §5

[9] = test system: seven Compound A resistant clones derived from the A375 PF11 melanoma cell line; experiment: Cell Growth Inhibition Assay, summary over resistant clones; conditions: Homo sapiens, A375P-F11, 72 h, 3 days, read-out: IC50s, Compound B alone, range over clones
Protocol: as §1, §2
Inhibition of cell growth was estimated after treatment with compound or combination of compounds for three days and comparing the signal to cells treated with vehicle (DMSO). Cell growth was calculated relative to vehicle (DMSO) treated control wells. […]

| IC50 [6] [nM] | IC50 [9] [nM] | SMILES | IC50 [1] [nM] | IC50 [2] [nM] | IC50 [3] [nM] | IC50 [4] [nM] | IC50 [5] [nM] | IC50 [7] [nM] | IC50 [8] [nM] |
| --- | --- | --- | --- | --- | --- | --- | --- | --- | --- |
| 59 | – | CC(C)(C)c1nc(-c2cccc(NS(=O)(=O)c3c(F)cccc3F)c2F)c(-c2ccnc(N)n2)s1 [Compound A, N-{3-[5-(2-amino-4-pyrimidinyl)-2-(1,1-dimethylethyl)-1,3-thiazol-4-yl]-2-fluorophenyl}-2,6-difluorobenzenesulfonamide] | > 10000 | > 10000 | > 10000 | > 10000 | > 10000 | > 10000 | > 10000 |
| 48 | 41 to 212 | COc1ncc(-c2ccc3nccc(-c4ccnnc4)c3c2)cc1NS(=O)(=O)c1ccc(F)cc1F [Compound B, 2,4-difluoro-N-{2-(methyloxy)-5-[4-(4-pyridazinyl)-6-quinolinyl]-3-pyridinyl}benzenesulfonamide] | 212 ± 38 | 41 ± 18 | 61 ± 10 | 88 ± 2 | 80 ± 17 | 103 ± 16 | 129 ± 24 |
